Measurements: article PMC11243177, “The Discovery, Molecular Cloning, and Characterization of Dextransucrase LmDexA and Its Active Truncated Mutant from Leuconostoc mesenteroides NN710” (Molecules, 2024)

Target: T1, ΔN190LmDexA (Leuconostoc mesenteroides, UniProt Q03VD8)
T1 construct: gene LEUM_1747; N-terminal 190 residues removed (signal peptide and variable region); 1372 aa, theoretical 150 kDa; borders 191-1562 derived from printed lengths
Assay: DNS assay of released reducing sugar (fructose), Michaelis-Menten fit
Type: biochemical
Conditions: pH 5.6, 30 °C, 20 mM sodium acetate, 3-300 mM sucrose, 30 min

T1 sequence (Q03VD8 entry or part of it, stated change not applied): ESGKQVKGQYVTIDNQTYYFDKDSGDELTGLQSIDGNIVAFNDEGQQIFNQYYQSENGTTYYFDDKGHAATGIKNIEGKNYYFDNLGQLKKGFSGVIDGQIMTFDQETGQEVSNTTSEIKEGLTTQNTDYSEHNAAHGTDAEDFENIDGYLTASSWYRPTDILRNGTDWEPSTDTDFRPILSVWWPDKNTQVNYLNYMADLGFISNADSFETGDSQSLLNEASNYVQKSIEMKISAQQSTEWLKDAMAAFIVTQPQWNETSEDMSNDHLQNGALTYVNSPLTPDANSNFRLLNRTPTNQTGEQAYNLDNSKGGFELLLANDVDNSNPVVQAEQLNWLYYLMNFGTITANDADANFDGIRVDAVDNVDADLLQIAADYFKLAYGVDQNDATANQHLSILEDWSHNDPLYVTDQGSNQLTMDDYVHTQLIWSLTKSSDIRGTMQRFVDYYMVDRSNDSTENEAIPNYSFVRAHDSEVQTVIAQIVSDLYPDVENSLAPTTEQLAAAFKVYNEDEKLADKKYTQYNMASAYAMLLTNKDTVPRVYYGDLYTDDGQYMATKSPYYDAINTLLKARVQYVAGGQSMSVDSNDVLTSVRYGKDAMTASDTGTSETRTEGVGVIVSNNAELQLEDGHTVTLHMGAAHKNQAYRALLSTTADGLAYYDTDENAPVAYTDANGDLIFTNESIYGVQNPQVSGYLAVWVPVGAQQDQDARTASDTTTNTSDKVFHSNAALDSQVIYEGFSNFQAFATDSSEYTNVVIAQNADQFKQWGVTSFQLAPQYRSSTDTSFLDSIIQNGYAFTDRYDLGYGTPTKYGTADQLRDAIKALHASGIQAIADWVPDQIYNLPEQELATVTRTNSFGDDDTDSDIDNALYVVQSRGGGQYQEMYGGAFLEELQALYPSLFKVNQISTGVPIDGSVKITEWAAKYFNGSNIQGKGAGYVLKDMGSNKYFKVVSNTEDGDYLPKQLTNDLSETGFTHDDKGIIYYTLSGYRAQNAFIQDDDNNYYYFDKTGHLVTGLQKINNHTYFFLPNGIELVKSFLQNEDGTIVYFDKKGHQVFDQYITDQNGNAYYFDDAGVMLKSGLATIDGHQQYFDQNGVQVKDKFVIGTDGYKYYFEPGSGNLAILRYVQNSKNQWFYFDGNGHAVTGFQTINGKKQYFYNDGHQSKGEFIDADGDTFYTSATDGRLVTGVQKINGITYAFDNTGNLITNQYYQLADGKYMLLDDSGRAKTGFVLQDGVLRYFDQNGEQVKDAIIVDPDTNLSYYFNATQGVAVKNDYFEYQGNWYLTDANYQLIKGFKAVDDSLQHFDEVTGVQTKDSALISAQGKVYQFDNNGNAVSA

Km: 13.7 mM
Compound: OC[C@H]1O[C@@](CO)(O[C@H]2O[C@H](CO)[C@@H](O)[C@H](O)[C@H]2O)[C@@H](O)[C@@H]1O [sucrose]
